According to ChEMBL document CHEMBL5537169, “Structure-Activity Relationships and Discovery of (S)-6-Isopropyl-2-methoxy-3-(3-methoxypropoxy)-10-oxo-5,10-dihydro-6H-pyrido[1,2-h][1,7]naphthyridine-9-carboxylic Acid (AB-452), a Novel Orally Available HBV RNA Destabilizer” (J Med Chem, 2024):
pEC50: −log10 of the molar value.

What was measured:
[1] = Tmax in Sprague-Dawley rat at 10 mg/kg,po measured at 0.083 to 24 hrs post administration by LC-MS/MS analysis; format: ADME, organism-based; details: Sprague-Dawley, in vivo, time 0.083-24 hrs, read-out: Tmax
[2] = Apparent volume of distribution at steady state in Sprague-Dawley rat at 10 mg/kg,po measured at 0.083 to 24 hrs post administration by LC-MS/MS analysis; format: ADME, organism-based; details: in vivo, time 0.083-24 hrs
[3] = Drug accumulation in Sprague-Dawley rat liver at 10 mg/kg,po measured at 0.083 to 24 hrs post administration by LC-MS/MS analysis; format: ADME, organism-based; details: in vivo, time 0.083-24 hrs
Hepatitis B virus [4] = experiment: Antiviral activity against AAV-Hepatitis B virus infected in C57BL/6 mouse assessed as serum HBsAg level at 30 mg/kg,po administrated once daily for 7 days by enzyme-linked immunoassay; format: functional; details: time 7 day
[5] = Cardiotoxicity in Langendorff-perfused New Zealand White rabbit heart assessed as increase in QT interval upto 10 uM incubated for 45 mins by ECG analysis; format: toxicity, tissue-based, Oryctolagus cuniculus; details: 0.75 h
[6] = Cardiotoxicity in Langendorff-perfused New Zealand White rabbit heart assessed as increase in QRS interval upto 10 uM incubated for 45 mins by ECG analysis; format: toxicity, tissue-based, Oryctolagus cuniculus; details: 0.75 h
Hepatitis B virus [7] = experiment: Antiviral activity against AAV-Hepatitis B virus infected in human Primary hepatocyte assessed as reduction in HBsAg level measured after 16 days by ELISA; format: functional, organism-based; details: 384 h
Hepatitis B virus [8] = experiment: Antiviral activity against AAV-Hepatitis B virus infected in human Primary hepatocyte assessed as reduction in HBeAg level measured after 16 days by ELISA; format: functional, organism-based; details: 384 h
[9] = Toxicity in rat assessed as NOAEL administrated for 28 days; details: in vivo, time 28 day
[10] = Cardiotoxicity in Langendorff-perfused New Zealand White rabbit heart assessed as increase in PR interval upto 10 uM incubated for 45 mins by ECG analysis; format: toxicity, tissue-based, Oryctolagus cuniculus; details: 0.75 h

Tmax [1] | Vdss(app) [2] | Ct [3] | SMILES | Activity (Hepatitis B virus [4]) | Activity [5] | Activity [6] | pEC50 (Hepatitis B virus [7]) | pEC50 (Hepatitis B virus [8]) | NOAEL at 672 h [9] | Activity [10]
2.1 h | 0.4 L/kg | 29 ng/g | COCCCOc1cc2c(cc1Cl)-c1cc(=O)c(C(=O)O)cn1[C@H](C(C)C)CO2 | – | – | – | – | – | – | –
– | – | – | COCCCOc1cc2c(nc1OC)-c1cc(=O)c(C(=O)O)cn1[C@H](C(C)C)C2 | 1.78 log10CFU | Non-Toxic | Non-Toxic | 8.52 | 8.52 | 150 mg/kg | Non-Toxic
